“Also recorded” adds a separate entry of the source. Read-outs that look alike come from different tables or passages of the source.
Key:
[1] = tested on: LPS-induced B lymphocytes; test: Anti-proliferative activity against LPS-induced B lymphocytes (CCK-8); type: cell-based; settings: Mus musculus, Lymphocyte, c = 40 μM, read-out: Inhibition rate (%) B
[2] = tested on: lymphocytes; test: Lymphocyte viability (CCK-8); type: cell-based, mouse; settings: c = 40 μM
[3] = tested on: ConA-induced T lymphocytes; test: Anti-proliferative activity against ConA-induced T lymphocytes (CCK-8); type: cell-based; settings: Mus musculus, T-lymphocyte, c = 40 μM, read-out: Inhibition rate (%) T
[4] = tested on: IL-2; test: Cytokine analysis by ELISA of induced T cells: IL-2; type: cell-based, mouse; settings: 40 μM; ConA-induced T cells, 48 h; P < 0.01 vs. model
Protocol: (§1) The mononuclear cell suspensions (2 × 10^5 cells/well) were cultured with ConA (5 μg/mL) in 96-well plates, and indicated concentrations of compounds 2, 15, and 32 were added simultaneously. After a 48-hour culture period, cytokines in the supernatants were quantified using mouse IFN-γ, IL-2, and IL-17A ELISA kits (Mabtech, Sweden), following the manufacturer’s protocol ([Jing et al. 2021]; [Zhao et al. 2024]).

[5] = tested on: IFN-γ; test: Cytokine analysis by ELISA of induced T cells: IFN-γ; type: cell-based, mouse; settings: ConA-induced T cells, 48 h; all sample groups; P < 0.0001 vs. model
Protocol: as §1

[6] = tested on: lymphocytes; test: Lymphocyte viability (CCK-8); type: cell-based, mouse; settings: c = 20 μM
Protocol: (§2) As previously described, the immunosuppressive activity, lymphocyte viability, and antiproliferative activity against HaCaT cells were evaluated using the CCK-8 method ([Zhao et al. 2023], [2024]).
(§3) In the immunosuppressive and lymphocyte viability, the primary tested concentration of all compounds was 20.0 μM, and dexamethasone (Dex) (c = 2.0 μM) was used as a positive control. In the antiproliferative activity against HaCaT cells, the primary tested concentration of all compounds was 40 μM, and the positive control was methotrexate (MTX) (c = 40.0 μM). When the inhibition rates are greater than 50%, the IC50 values of active compounds will be further tested and calculated. All experiments were performed in triplicate.

[7] = tested on: LPS-induced B lymphocytes; test: Anti-proliferative activity against LPS-induced B lymphocytes (CCK-8); type: cell-based, mouse; settings: for IC50: induced proliferation of B lymphocytes (LPS), CCK-8, read-out: B cells IC50
Protocol: as §2, §3

[8] = tested on: ConA-induced T lymphocytes; test: Anti-proliferative activity against ConA-induced T lymphocytes (CCK-8); type: cell-based; settings: Mus musculus, T-lymphocyte
Protocol: as §2, §3

[9] = tested on: HaCaT cells; test: Antiproliferative activity against HaCaT cells (CCK-8); type: cell-based; settings: Homo sapiens, HaCaT, read-out: IC50 against the proliferation of HaCaT cells
Protocol: as §2, §3

[10] = tested on: induced B cells (LPS 15 μg/mL); test: EdU proliferation assay, induced B cells; type: cell-based, mouse; settings: c = 10 μM; relative to the model group
Protocol: (§4) EdU fluorescence labeling for cell proliferation of induced T/B lymphocytes (2 × 10^5 cells/well) and HaCaT cells (1 × 10^4 cells/well) of active compounds 10, 19, 23, 32, 38, and 41 (final concentration 10 or 20 μM) was performed as previously reported ([Biram and Shulman 2020]; [Zhao et al. 2024]). EdU (HF488) (the Click-iT™ EdU Flow Cytometry Assay Kit, APExBIO, USA) was added 24 h (final concentration 50 μM, T and B cells) and 4 h (final concentration 10 μM, HaCaT cells) before harvesting the cells. All procedures were performed according to the manufacturer’s instructions for the click reaction. EdU-positive cells and proliferating phase cells were analyzed with a fluorescence microscope.

[11] = tested on: IL-17A; test: Cytokine analysis by ELISA of induced T cells: IL-17A; type: cell-based, mouse; settings: 10 μM; ConA-induced T cells, 48 h; P < 0.01 vs. model
Protocol: as §1

[12] = Lymphocyte viability (CCK-8); type: cell-based, mouse; settings: mouse, lymphocytes; lymphocyte viability; CCK-8
Protocol: as §2, §3

[13] = tested on: NF-κB p65 phosphorylation; test: Immunofluorescence of p-p65/p65 in HaCaT cells; type: cell-based; settings: 27.0 μM, 36 h, P < 0.01 vs. Con
Protocol: The immunofluorescence protocol was performed using the reported method ([Zhao et al. 2024]). HaCaT cells (2.0 × 10^5 cells/well) were plated onto 6-well plates with glass coverslips and adhered overnight (12 h) before compound addition. After treatment with active compounds 10 (final concentration 31 μM) and 32 (final concentration 27 μM) for 36 h, the supernatant was removed, and the cells were washed twice with PBS, fixed with 4% paraformaldehyde for 15 min, and then washed with PBS three times. After blocking, incubated with NF-κB p65 (p65)/phosphorylated NF-κB p65 (p-p65) antibodies and secondary antibodies (Servicebio, China). Then, cells were counterstained with 4,6-[…]-2-phenylindole (DAPI) for 5 min. After the PBS washing, fluorescent seal liquid was added, and the plate was monitored under an imaging system (Pannoramic MIDI, 3Dhistech, Hungary). The nucleus is blue, and positive cells are green (p-p65) or red (p65). The immunofluorescence areas for each indicator were analyzed in ImageJ.

[14] = tested on: induced T cells (Con A 5 μg/mL); test: EdU proliferation assay, induced T cells; type: cell-based, mouse; settings: c = 10 μM; relative to the model group
Protocol: as §4

[15] = tested on: HaCaT cells; test: EdU proliferation assay, HaCaT cells; type: cell-based; settings: c = 20 μM; compared to the control group
Protocol: as §4

Row | Structure (SMILES) | inhibition at 40 µM [1] | Cell validity (%) [2] | inhibition at 40 µM [3] | IL-2 levels [4] | IFN-γ secretion [5] | Cell validity (%) [6] | inhibition at 20 µM ([7]; Mus musculus, Lymphocyte, c = 20 μM, LPS-induced B lymphocytes, read-out: Inhibition rate (%) B) | inhibition at 20 µM ([8]; c = 20 μM, ConA-induced T lymphocytes, read-out: Inhibition rate (%) T) | IC50 [9] | proliferation of induced B cells measured by EdU [10] | IL-17A levels [11] | CC50 [12] | IC50 ([7]; Mus musculus, Lymphocyte) | IC50 [7] | NF-κB activation (ratio p-p65/p65) [13] | proliferation of induced T cells measured by EdU [14] | proliferation rates of HaCaT cells measured by EdU [15] | IC50 ([8]; induced proliferation of T lymphocytes (ConA), CCK-8, read-out: T cells IC50)
1 | C[C@]1(CCO)CC[C@H]2C(=CC[C@@H]3[C@]2(C)CCC[C@]3(C)C(=O)O)C1 [Compound 15, 16-hydroxyisopimar-7-en-19-oic acid] | 29 ± 12.2% | 80.2 ± 1.8% | 28.8 ± 5.8% | significantly reduced | significant reduction; also recorded: significantly reduced | 89.9 ± 7.5% | 23 ± 4.3% | 26.4 ± 6.3% |  |  |  |  |  |  |  |  |  | 
2 | CO[C@@H]1C=C2[C@@H]3CC[C@H]([C@H](C)/C=C/[C@H](C)C(C)C)[C@@]3(C)CC[C@@H]2[C@@]2(C)CC[C@H](O)C[C@]12O [Compound 32, (3β,5α,6β,22E)-6-methoxyergosta-7,22-diene-3,5-diol] |  |  |  |  | significant reduction; also recorded: significantly reduced |  |  |  | 27 ± 1.3 µM | significantly suppressed the proliferation | markedly lowered; also recorded: inhibiting IL-17A secretion | > 20 µM | 8 to 20 µM | 6 ± 0.3 µM | significantly attenuated NF-κB activation | significantly suppressed the proliferation | significantly reduced | 3.1 ± 0.2 µM

Source: publication PMC12365674, “Diverse metabolites with anti-psoriasis potential from different fermentations of the fungicolous fungus Xylarialongipes HFG1018” (IMA Fungus, 2025)
